Structures can show the parent of a compound that is named as a salt.
Assay: siRNA encapsulation in lipid nanoparticles (SYBR Gold)
Format: physicochemical
Settings: Table 2; FVII siRNA in LNP with the cationic lipid
Protocol: The lipid nanoparticles (LNPs) were formed by mixing equal volumes of lipids dissolved in alcohol with siRNA dissolved in a citrate buffer by an impinging jet process. The lipid solution contains a cationic lipid compound of the invention, a helper lipid (cholesterol), an optional neutral lipid (DSPC) and a PEG (PEG) lipid at a concentration of 8-16 mg/mL with a target of 12 mg/mL in an alcohol. The siRNA to total lipid ratio is approximately 0.05 (wt/wt). Where a LNP formulation contains four lipid components, the molar ratios of the lipids ranges from 20 to 70 mole percent for the cationic lipid with a target of 40-60, the mole percent of helper lipid ranges from 20 to 70 with a target of 30 to 50, the mole percent of neutral lipid ranges from 0-30, the mole percent of PEG lipid has a range from 1 to 6 with a target of 2 to 5. The concentration of siRNA solution ranges from 0.7 to 1.0 mg/mL with a target of 0.8 to 0.9 mg/mL in a sodium citrate: sodium chloride buffer pH 4-6, with a target of 4.5-5.5. The LNPs are formed by mixing equal volumes of lipid solution in ethanol with siRNA dissolved in a citrate buffer by an impinging jet process through a mixing device with ID ranging from 0.25 to 2.0 mm at a flow rate from 10 to 640 mL/min. The mixed LNP solution is held at room temperature for 0-24 hrs prior to a dilution step. The solution is then concentrated and diafiltered with suitable buffer by ultrafiltration or dialysis process using membranes with a MW cutoff from 30 to 500 KD. The final product is sterile filtered and stored at 4° C.
The lipid nanoparticles (LNPs) were formed by mixing equal volumes of lipids dissolved in alcohol with siRNA dissolved in a citrate buffer by an impinging jet process. The lipid solution contains a cationic lipid compound of the invention, a helper lipid (cholesterol), an optional neutral lipid (DSPC) and a stealth lipid (5010, S024, S027, or S031) at a concentration of 8-16 mg/mL with a target of 12 mg/mL in an alcohol. The siRNA to total lipid ratio is approximately 0.05 (wt/wt). Where a LNP formulation contains four lipid components, the molar ratios of the lipids ranges from 20 to 70 mole percent for the cationic lipid with a target of 40-60, the mole percent of helper lipid ranges from 20 to 70 with a target of 30 to 50, the mole percent of neutral lipid ranges from 0-30, the mole percent of PEG lipid has a range from 1 to 6 with a target of 2 to 5. The concentration of siRNA solution ranges from 0.7 to 1.0 mg/mL with a target of 0.8 to 0.9 mg/mL in a sodium citrate: sodium chloride buffer pH 4-6, with a target of 4.5-5.5. The LNPs are formed by mixing equal volumes of lipid solution in ethanol with siRNA dissolved in a citrate buffer by an impinging jet process through a mixing device with ID ranging from 0.25 to 2.0 mm at a flow rate from 10 to 640 mL/min. The mixed LNP solution is held at room temperature for 0-24 hrs prior to a dilution step. The solution is then concentrated and diafiltered with suitable buffer by ultrafiltration process using membranes with a MW cutoff from 30 to 500 KD. The final product is sterile filtered and stored at 4° C.
SYBR Gold flourescence reagent is used for the determination of siRNA encapsulation in the DLP's. DLP's with and without triton x-100 are used to determine the free siRNA and total siRNA amounts. DLP's samples with and without triton X-100 were excited at 485 nm and flourescence emission is measured at 530 nm. Encapsulation efficiency is calculated based on the following formula: Encapsulation efficiency:[([…])/(total siRNA concentration)]×100% Encapsulation Data

Compound: CCCCC/C=C\C/C=C\CCCCCCCC(=O)OCC(COC(=O)CCCCCCC/C=C\C/C=C\CCCCC)OC(=O)CCC(CCCCCCCCCCCC)OC(=O)OCCCN(CC)CC (stereo not shown) [Example 81, (9Z,9′Z,12Z,12′Z)-2-((4-(((3-(diethylamino)propoxy)carbonyl)oxy)hexadecanoyl)oxy)propane-1,3-diyl bis(octadeca-9,12-dienoate)]
- % encapsulation siRNA FVII: 48.8%

Compound: CCCCC/C=C\C/C=C\CCCCCCCC(=O)OCCC(CCCCCCCCCCOC(=O)CCCCCCC)OC(=O)OCCCN(C)C (stereo not shown) [Example 60, (9Z,12Z)-3-(((3-(dimethylamino)propoxy)carbonyl)oxy)-13-(octanoyloxy)tridecyl octadeca-9,12-dienoate]
- % encapsulation siRNA FVII: 82.4%

Compound: CCCCC/C=C\C/C=C\CCCCCCCCC(COCCOC(=O)CCCCCCC/C=C\C/C=C\CCCCC)OC(=O)CCN(C)C (stereo not shown) [Example 59, (9Z,12Z)-2-(((11Z,14Z)-2-((3-(dimethylamino)propanoyl)oxy)icosa-11,14-dien-1-yl)oxy)ethyl octadeca-9,12-dienoate]
- % encapsulation siRNA FVII: 90.2%

Compound: CCCCCCCCC(CCCCCCCC)CC(=O)OCCC(CCCCCCCCCCOC(=O)CCCCCCC)OC(=O)OCCCN(C)C (stereo not shown) [Example 61, 3-(((3-(dimethylamino)propoxy)carbonyl)oxy)-13-(octanoyloxy)tridecyl 3-octylundecanoate]
- % encapsulation siRNA FVII: 85.5%

Compound: CCCCCCCCCCCCC(CCOC(=O)CC(CCCCCCCC)CCCCCCCC)OC(=O)OCCCN(C)C (stereo not shown) [Example 24, 3-(((3-(dimethylamino)propoxy)carbonyl)oxy)pentadecyl 3-octylundecanoate]
- % encapsulation siRNA FVII: 86.8%

Compound: CCCCC/C=C\C/C=C\CCCCCCCCC(CCOC(=O)CCCCCCC/C=C\C/C=C\CCCCC)OC(=O)CCN(C)C (stereo not shown) [Example 49, (9Z,12Z)-(12Z,15Z)-3-((3-(dimethylamino)propanoyl)oxy)henicosa-12,15-dien-1-yl octadeca-9,12-dienoate]
- % encapsulation siRNA FVII: 88.4%

Compound: CCCCCCCCCCCCC(CCOC(=O)CCCCC=C(CCCCCC)CCCCCC)OC(=O)OCCCN(C)C (stereo not shown) [Example 26, 3-(((3-(dimethylamino)propoxy)carbonyl)oxy)pentadecyl 7-hexyltridec-6-enoate]
- % encapsulation siRNA FVII: 89.8%

Compound: CCCCCC(CCCCC)CCCCCCCC(=O)OCCC(CCCCCCCCCCO)OC(=O)OCCCN(C)C (stereo not shown) [Example 65, 3-(((3-(dimethylamino)propoxy)carbonyl)oxy)-13-hydroxytridecyl 9-pentyltetradecanoate]
- % encapsulation siRNA FVII: 39.5%

Compound: CCCCCCCCCCCCC(CCC(=O)OC(COC(=O)CCCCCCCCCCC)COC(=O)CCCCCCCCCCC)OC(=O)OCCCN(C)C (stereo not shown) [Example 87, 2-((4-(((3-(dimethylamino)propoxy)carbonyl)oxy)hexadecanoyl)oxy)propane-1,3-diyl didodecanoate]
- % encapsulation siRNA FVII: 77.5%

Compound: CCCCCCCC(=O)OCCCCCCCCCCC(CCOC(=O)CCCCCCCC(CCCCC)CCCCC)OC(=O)OCCCN(C)C (stereo not shown) [Example 66, 3-(((3-(dimethylamino)propoxy)carbonyl)oxy)-13-(octanoyloxy)tridecyl 9-pentyltetradecanoate]
- % encapsulation siRNA FVII: 83.4%

Compound: CCCCCCCCCCCCC(CCOC(=O)CCC(OCC(CC)CCCC)OCC(CC)CCCC)OC(=O)OCCCN(CC)CC (stereo not shown) [Example 12, 3-(((3-(diethylamino)propoxy)carbonyl)oxy)pentadecyl 4,4-bis((2-ethylhexyl)oxy)butanoate]
- % encapsulation siRNA FVII: 91.7%

Compound: CCCCCCCCCCCCC(CCOC(=O)CCCCCCC(OCCCC)OCCCC)OC(=O)OCCCN(CC)CC (stereo not shown) [Example 20, 3-(((3-(diethylamino)propoxy)carbonyl)oxy)pentadecyl 8,8-dibutoxyoctanoate]
- % encapsulation siRNA FVII: 76.7%

Compound: CCCCC/C=C\C/C=C\CCCCCCCCC(CCOC(=O)CC(CCCCCCCC)CCCCCCCC)OC(=O)CCCN(C)C (stereo not shown) [Example 50, (12Z,15Z)-3-((4-(dimethylamino)butanoyl)oxy)henicosa-12,15-dien-1-yl 3-octylundecanoate, formate salt]
- % encapsulation siRNA FVII: 85.3%

Compound: CCCCCCCC(CCCCCCC)CCCC(=O)OCCC(CCCCCCCCCCO)OC(=O)OCCCN(C)C (stereo not shown) [Example 62, 3-(((3-(dimethylamino)propoxy)carbonyl)oxy)-13-hydroxytridecyl 5-heptyldodecanoate]
- % encapsulation siRNA FVII: 75.2%

Compound: CCCCCCCCCCCCC(CCOC(=O)CCC(COC(=O)CCCCCCC)COC(=O)CCCCCCC)OC(=O)OCCCN(CC)CC (stereo not shown) [Example 4, 2-(10-dodecyl-3-ethyl-8,14-dioxo-7,9,13-trioxa-3-azahexadecan-16-yl)propane-1,3-diyl dioctanoate]
- % encapsulation siRNA FVII: 88.6%

Compound: CCCCC/C=C\C/C=C\CCCCCCCCC(CCOC(=O)CCCCCCCC(CCCCC)CCCCC)OC(=O)CCCN(C)C (stereo not shown) [Example 53, (12Z,15Z)-3-((4-(dimethylamino)butanoyl)oxy)henicosa-12,15-dien-1-yl 9-pentyltetradecanoate]
- % encapsulation siRNA FVII: 85.6%

Compound: CCCCCCCC(=O)OCCCCCCCCCCC(CCOC(=O)CCCC(CCCCCCC)CCCCCCC)OC(=O)OCCCN(C)C (stereo not shown) [Example 63, 3-(((3-(dimethylamino)propoxy)carbonyl)oxy)-13-(octanoyloxy)tridecyl 5-heptyldodecanoate]
- % encapsulation siRNA FVII: 85.6%

Compound: CCCCCCCCCCCCC(CCOC(=O)CCCCCCCC(CCCCC)CCCCC)OC(=O)OCCCN(C)C (stereo not shown) [Example 27, 3-(((3-(dimethylamino)propoxy)carbonyl)oxy)pentadecyl 9-pentyltetradecanoate]
- % encapsulation siRNA FVII: 86.6%

Compound: CCCCC/C=C\C/C=C\CCCCCCCCC(CCOC(=O)CCCCCC(CCCCCC)CCCCCC)OC(=O)CCCN(C)C (stereo not shown) [Example 52, (12Z,15Z)-3-((4-(dimethylamino)butanoyl)oxy)henicosa-12,15-dien-1-yl 7-hexyltridecanoate]
- % encapsulation siRNA FVII: 84.6%

Compound: CCCCC/C=C\C/C=C\CCCCCCCCC(CCC(=O)OC(COC(=O)CCCCCCC)COC(=O)CCCCCCC)OC(=O)OCCCN(CC)CC (stereo not shown) [Example 95, 2-(((13Z,16Z)-4-(((3-(diethylamino)propoxy)carbonyl)oxy)docosa-13,16-dienoyl)oxy)propane-1,3-diyl dioctanoate]
- % encapsulation siRNA FVII: 86.9%

Compound: CCCCCCCCCCCCCC(=O)OCC(COC(=O)CCCCCCCCCCCCC)OC(=O)CCC(CCCCCCCCCCCC)OC(=O)OCCCN(C)C (stereo not shown) [Example 85, 2-((4-(((3-(dimethylamino)propoxy)carbonyl)oxy)hexadecanoyl)oxy)propane-1,3-diyl ditetradecanoate]
- % encapsulation siRNA FVII: 85.7%

Compound: CCCCC/C=C\C/C=C\CCCCCCCC(=O)OCCCCC(CC(CCCCCCCC)CCCCCCCC)OC(=O)OCCCN(C)C (stereo not shown) [Example 72, (9Z,12Z)-5-(((3-(dimethylamino)propoxy)carbonyl)oxy)-7-octylpentadecyl octadeca-9,12-dienoate]
- % encapsulation siRNA FVII: 62.5%
